{"source": "patent US5747247A", "about": "“Spectroscopic helicase assay” (The Regents of The University of California, priority 1994, dated 1998)", "key": {"recBCD enzyme [1]": {"molecular_target": "T1, recBCD enzyme (Escherichia coli, UniProt P04993+P07648+P08394)", "T1 construct": "made in house", "T1 sequence (P07648 whole entry)": "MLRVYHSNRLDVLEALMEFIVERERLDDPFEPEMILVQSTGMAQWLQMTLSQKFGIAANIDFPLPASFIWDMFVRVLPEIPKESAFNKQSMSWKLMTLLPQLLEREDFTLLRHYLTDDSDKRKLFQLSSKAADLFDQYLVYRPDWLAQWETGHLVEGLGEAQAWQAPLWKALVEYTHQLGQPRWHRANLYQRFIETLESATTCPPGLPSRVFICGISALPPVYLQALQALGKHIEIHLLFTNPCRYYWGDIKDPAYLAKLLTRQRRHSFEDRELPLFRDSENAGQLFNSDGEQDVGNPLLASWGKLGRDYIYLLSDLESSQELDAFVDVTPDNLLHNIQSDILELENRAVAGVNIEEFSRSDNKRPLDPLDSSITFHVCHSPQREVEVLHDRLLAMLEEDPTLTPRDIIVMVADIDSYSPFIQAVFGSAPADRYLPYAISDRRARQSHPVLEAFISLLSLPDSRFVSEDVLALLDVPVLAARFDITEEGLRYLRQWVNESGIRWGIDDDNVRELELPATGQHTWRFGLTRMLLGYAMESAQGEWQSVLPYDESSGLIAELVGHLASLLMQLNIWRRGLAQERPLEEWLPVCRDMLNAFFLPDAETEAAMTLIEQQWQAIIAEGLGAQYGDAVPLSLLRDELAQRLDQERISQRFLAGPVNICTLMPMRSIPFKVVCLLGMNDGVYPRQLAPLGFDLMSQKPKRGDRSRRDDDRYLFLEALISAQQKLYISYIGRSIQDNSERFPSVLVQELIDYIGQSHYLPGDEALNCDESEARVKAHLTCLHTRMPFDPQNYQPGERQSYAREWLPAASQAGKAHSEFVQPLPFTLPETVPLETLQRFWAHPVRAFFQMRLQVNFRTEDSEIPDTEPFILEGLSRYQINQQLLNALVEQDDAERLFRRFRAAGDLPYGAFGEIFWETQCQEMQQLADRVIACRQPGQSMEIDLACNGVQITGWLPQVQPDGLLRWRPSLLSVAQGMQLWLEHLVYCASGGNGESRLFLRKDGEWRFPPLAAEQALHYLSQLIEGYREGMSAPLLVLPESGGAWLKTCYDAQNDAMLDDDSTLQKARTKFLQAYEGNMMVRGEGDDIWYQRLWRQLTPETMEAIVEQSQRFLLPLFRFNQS", "T1 sequence (P04993 whole entry)": "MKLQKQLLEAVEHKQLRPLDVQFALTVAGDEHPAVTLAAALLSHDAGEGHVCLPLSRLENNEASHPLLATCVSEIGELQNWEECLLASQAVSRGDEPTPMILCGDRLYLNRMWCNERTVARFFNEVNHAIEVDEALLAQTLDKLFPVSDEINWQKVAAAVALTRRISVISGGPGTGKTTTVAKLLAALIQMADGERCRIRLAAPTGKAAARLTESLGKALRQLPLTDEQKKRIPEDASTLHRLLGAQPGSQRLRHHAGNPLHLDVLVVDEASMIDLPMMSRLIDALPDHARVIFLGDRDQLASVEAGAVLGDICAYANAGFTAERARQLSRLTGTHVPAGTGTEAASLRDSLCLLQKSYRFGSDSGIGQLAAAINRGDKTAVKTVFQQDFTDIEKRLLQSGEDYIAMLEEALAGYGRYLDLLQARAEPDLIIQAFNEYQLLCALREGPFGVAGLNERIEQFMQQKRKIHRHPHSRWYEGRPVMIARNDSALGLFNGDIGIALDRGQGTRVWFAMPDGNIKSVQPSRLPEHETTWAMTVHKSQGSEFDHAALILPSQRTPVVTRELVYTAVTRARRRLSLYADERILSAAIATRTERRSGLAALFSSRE", "T1 sequence (P08394 whole entry)": "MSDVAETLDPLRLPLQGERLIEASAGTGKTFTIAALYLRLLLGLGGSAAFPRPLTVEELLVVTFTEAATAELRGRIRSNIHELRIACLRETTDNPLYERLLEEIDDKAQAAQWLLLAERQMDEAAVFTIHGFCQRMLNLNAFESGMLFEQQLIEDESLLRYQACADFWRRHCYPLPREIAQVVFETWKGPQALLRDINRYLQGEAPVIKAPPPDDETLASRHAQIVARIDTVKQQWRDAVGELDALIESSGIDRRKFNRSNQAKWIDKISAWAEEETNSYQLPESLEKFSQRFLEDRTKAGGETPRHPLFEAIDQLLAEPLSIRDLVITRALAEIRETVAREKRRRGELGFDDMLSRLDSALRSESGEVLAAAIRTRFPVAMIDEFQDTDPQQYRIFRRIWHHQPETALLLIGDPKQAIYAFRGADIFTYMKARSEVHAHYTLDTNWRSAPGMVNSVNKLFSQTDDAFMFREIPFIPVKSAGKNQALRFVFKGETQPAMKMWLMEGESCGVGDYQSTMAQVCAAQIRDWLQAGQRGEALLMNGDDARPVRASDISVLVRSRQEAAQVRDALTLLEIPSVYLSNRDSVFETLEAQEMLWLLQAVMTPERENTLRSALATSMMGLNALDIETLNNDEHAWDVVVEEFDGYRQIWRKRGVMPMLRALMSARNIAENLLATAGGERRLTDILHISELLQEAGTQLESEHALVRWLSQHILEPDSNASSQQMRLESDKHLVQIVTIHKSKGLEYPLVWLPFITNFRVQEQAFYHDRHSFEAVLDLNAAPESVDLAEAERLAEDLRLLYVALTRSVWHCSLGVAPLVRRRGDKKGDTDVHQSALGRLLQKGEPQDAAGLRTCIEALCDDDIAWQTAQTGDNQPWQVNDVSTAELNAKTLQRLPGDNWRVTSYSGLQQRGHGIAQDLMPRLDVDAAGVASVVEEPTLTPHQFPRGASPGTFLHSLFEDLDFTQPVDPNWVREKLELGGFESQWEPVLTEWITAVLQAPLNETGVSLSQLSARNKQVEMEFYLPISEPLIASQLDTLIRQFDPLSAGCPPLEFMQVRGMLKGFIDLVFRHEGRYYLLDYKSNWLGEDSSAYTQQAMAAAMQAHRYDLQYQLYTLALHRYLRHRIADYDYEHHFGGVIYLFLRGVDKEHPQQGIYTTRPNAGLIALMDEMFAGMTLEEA", "test": "SSB protein fluorescence assay of DNA unwinding in presence of fluorescent dyes", "type": "biochemical, E. coli", "details": "for Rate of DNA unwinding: 20° C., 2 uM SSB protein, 0.5 nM total recBCD enzyme, none = 40.7 ± 4.1", "description": "(§1) Fluorometric helicase assay: The standard reaction buffer consisted of 25 mM Tris-acetate (pH 7.5), 1 mM Mg(OAc)2, and 1 mM DTT. When SSB protein was included, it was present at a 3-fold molar excess, assuming a site size of 15 nucleotides/monomer under stoichiometric conditions. This corresponds to a protein concentration which is 20% of the DNA (nucleotide) concentration. The DNA substrate was BamHI-digested pBR322 DNA, at a concentration of 10 uM nucleotide (2.1 nM ends).\n(§2) The reaction (350 ul total volume) contained standard buffer, linear pBR322 DNA, and the indicated concentration of recBCD enzyme. […] The fluorescence signal due to these components was zeroed out. The fluorophore (either SSB protein or dye) was then added, and the reaction was allowed to equilibrate to the indicated temperature. Unwinding was initiated by the addition of ATP to 3 mM final concentration. […] For SSB protein fluorescence measurements, the value for 100% unwinding was calculated as described previously (28, 41). For dye fluorescence experiments, the value for complete unwinding was obtained by subtracting the fluorescence in the presence of an equimolar amount of ssDNA (i.e., heat-denatured pBR322) (FssDNA) from the fluorescence at the start of the reaction (FdsDNA). The difference in these values (FdsDNA -FssDNA) was taken to be the maximum fluorescence change possible if all of the DNA molecules were fully unwound (Fexp). The observed fluorescence change (Fobs) was divided by this differ ence to obtain the extent of unwinding. Initial rates were then calculated as described previously (28).\n(§3) Fluorescence measurements were carried out on a Shimadzu RF5000U spectrofluorophotometer. When the intrinsic fluorescence of SSB protein was measured, the excitation and emission wavelengths were set at 290 and 340 nm, respectively. The excitation and emission wavelengths for the various dyes were determined experimentally in the presence of dsDNA. For AO, these values were 487 and 510 nm; for DAPI, 345 and 467 nm; for EB, 546 and 590 nm; for EHD, 552 and 596 nm; for H33258, 344 and 487 nm; and for TO, 504 and 528 nm. When SSB protein fluorescence was monitored, the band widths were 1.5 and 10 nm for the excitation and emission slits, respectively; for all of the dye fluorescence experiments, these values were 5 and 10 nm, respectively.\nThe unwinding reaction was performed at 20° C. in buffer containing 25 mM Tris-acetate (pH 7.5), 1 mM Mg(OAc)2, 3 mM ATP, 1 mM DTT, 10 uM nucleotide BamHI-digested pBR322 DNA, 2 uM SSB protein, 0.5 nM total (0.17 nM functional) recBCD enzyme, and the indicated concentrations of dye. SSB protein fluorescence was monitored."}, "recBCD enzyme [2]": {"test_system": "recBCD enzyme", "test": "Dye displacement fluorometric helicase assay (DNA unwinding followed by dye fluorescence)", "type": "biochemical, E. coli", "details": "for Apparent rate of unwinding at which the dye titration levels off: 0.5 nM total recBCD, 2 uM SSB, plateau at ~150 nM for H33258 and TO and 375 nM for DAPI; for Apparent rate of unwinding at which the dye titration levels off / Vmax, observed rate of unwinding at saturating enzyme: 20° C.; for Increase of Vmax in absence of SSB protein relative to its presence: SSB protein omitted vs present; for Vmax, observed rate of unwinding: SSB protein omitted; for Vmax, observed rate of unwinding / Vmax, observed rate of unwinding at saturating enzyme: 250 nM DAPI, 100 nM H33258, 300 nM TO; for Vmax, observed rate of unwinding at saturating enzyme / Apparent energy of activation (Ea) of unwinding: with SSB protein; for Vmax, observed rate of unwinding at saturating enzyme: SSB assay gives 250±25; for Apparent energy of activation (Ea) of unwinding: Arrhenius plots from 20°, 25°, 32°, 37° C., SSB assay 9.7", "description": "as §1, §2, §3\nTo determine whether the presence of dyes affected the observed rate of unwinding, the reaction (including SSB protein) was performed at several concentrations of DAPI, H33258, and TO. The reactions were performed at 20° C. in standard buffer with 10 uM nucleotide (2.1 nM ends) linear pBR322 DNA, 2 uM SSB protein, 0.5 nM total (0.17 nM functional) recBCD enzyme, and the indicated concentration of dye. Unwinding was initiated by adding ATP to a final concentration of 3 mM. […] For each dye (DAPI (.circle-solid.), H33258 (o), or TO (.tangle-solidup.), the initial rate of unwinding was determined as described in the Experimental Procedures and is plotted in panel B as a function of dye concentration. Due to the lag behavior illustrated in panel A, the data at concentrations ≤100 nM are considered unreliable, as indicated by shading this portion of the graph.\nIn FIG. 4A, raw data from an experiment in which recBCD enzyme concentration was varied at a given concentration of TO are shown; SSB protein was included to allow comparison to previous results. From results such as these, using either DAPI, H33258, or TO, the data in FIG. 4B were generated. Unwinding was performed as in FIG. 3, except that the concentration of recBCD enzyme was varied, and a constant concentration of fluorophore (250 nM for DAPI; 100 nM for H33258; and 300 nM for TO) was used. In panel A, a portion of the raw data obtained with TO are shown. The observed rates of unwinding derived from such experiments are shown in panel B. DAPI, .circle-solid.; H33258, o; TO, .tangle-solidup.. […]"}, "[3]": {"test_system": "E. coli helicase I, helicase II (uvrD), and rep proteins", "details": "George et al., cited from earlier work; for Ki: read-out: Ki for ATPase and helicase activities"}, "helicase": {"test_system": "helicase", "details": "other studies (refs 46-48); cited from earlier work"}}}
{"smiles": "CN1C(=Cc2cc[n+](C)c3ccccc23)Sc2ccccc21", "note": "[TO, thiazole orange]", "values": [{"measurement": "Rate of DNA unwinding", "setting": "recBCD enzyme [1]; 100 nM dye", "result": "35.6 ± 1.3", "unit": "nm bp/s"}, {"measurement": "Rate of DNA unwinding", "setting": "recBCD enzyme [1]; 250 nM dye", "result": "31.9 ± 0.7", "unit": "nm bp/s"}, {"measurement": "inhibition at 0.25 µM", "setting": "recBCD enzyme [1]; read-out: Decrease of observed rate of unwinding", "result": "< 20", "unit": "%"}, {"measurement": "Apparent rate of unwinding at which the dye titration levels off", "setting": "recBCD enzyme [2]", "result": "20-25 nM bp/s"}, {"measurement": "Increase of Vmax in absence of SSB protein relative to its presence", "setting": "recBCD enzyme [2]", "result": "25-50%"}, {"measurement": "Vmax, observed rate of unwinding", "setting": "recBCD enzyme [2]", "result": "330±25", "unit": "nM bp/s"}, {"measurement": "Vmax, observed rate of unwinding at saturating enzyme", "setting": "recBCD enzyme [2]", "result": "211±15", "unit": "nM bp/s"}, {"measurement": "Apparent energy of activation (Ea) of unwinding", "setting": "recBCD enzyme [2]", "result": 9.7, "unit": "kcal/mol"}]}
{"smiles": "O=C1c2c(O)ccc(O)c2C(=O)c2c(NCCNCCO)ccc(NCCNCCO)c21", "note": "[mitoxantrone]", "values": [{"measurement": "Inhibition of helicases", "setting": "[3]; dependent upon ligand and enzyme", "result": "potent but differential inhibition"}]}
{"smiles": "CN1CCN(c2ccc3[nH]c(-c4ccc5[nH]c(-c6ccc(O)cc6)nc5c4)nc3c2)CC1", "note": "[H33258, Hoechst 33258]", "values": [{"measurement": "Rate of DNA unwinding", "setting": "recBCD enzyme [1]; 100 nM dye", "result": "36.1 ± 4.5", "unit": "nm bp/s"}, {"measurement": "Rate of DNA unwinding", "setting": "recBCD enzyme [1]; 250 nM dye", "result": "35.5 ± 1.9", "unit": "nm bp/s"}, {"measurement": "Effect on observed rate of unwinding", "setting": "recBCD enzyme [1]; dye at 100 or 250 nM, low enzyme concentration", "result": "does not affect the observed rate of unwinding"}, {"measurement": "Apparent rate of unwinding at which the dye titration levels off", "setting": "recBCD enzyme [2]", "result": "20-25 nM bp/s"}, {"measurement": "Rate of unwinding at optimal dye concentration compared with SSB protein fluorescence assay", "setting": "recBCD enzyme [2]; 400 nm DAPI, 300 nm H33258", "result": "within experimental error, equal to those obtained using the SSB protein fluorescence assay"}, {"measurement": "Increase of Vmax in absence of SSB protein relative to its presence", "setting": "recBCD enzyme [2]", "result": "25-50%"}, {"measurement": "Vmax, observed rate of unwinding", "setting": "recBCD enzyme [2]", "result": "272±30", "unit": "nM bp/s"}, {"measurement": "Vmax, observed rate of unwinding at saturating enzyme", "setting": "recBCD enzyme [2]", "result": "221±25", "unit": "nM bp/s"}, {"measurement": "Apparent energy of activation (Ea) of unwinding", "setting": "recBCD enzyme [2]", "result": 9.9, "unit": "kcal/mol"}, {"measurement": "Ki", "setting": "[3]", "result": "1 to 10", "unit": "µM"}]}
{"smiles": "N=C(N)c1ccc(-c2cc3ccc(C(=N)N)cc3[nH]2)cc1", "values": [{"measurement": "Ki", "setting": "[3]", "result": "1 to 10", "unit": "µM"}]}
{"smiles": "CN(C)c1ccc2cc3ccc(N(C)C)cc3nc2c1", "note": "[AO, acridine orange]", "values": [{"measurement": "Ki", "setting": "[3]", "result": "1 to 10", "unit": "µM"}]}
{"smiles": "COc1c(O)c2c(c3cc(C(=O)N4CCc5c4c(O)c(OC)c4[nH]c(C(=O)N6CC7CC78C6=CC(=O)c6[nH]cc(C)c68)cc54)[nH]c13)CCN2C(N)=O", "note": "(stereo not shown) [CC-1065]", "values": [{"measurement": "Inhibition of helicase activity", "setting": "helicase", "result": "inhibition of helicase activity"}]}
